# According to patent publication US9630958B2, “Triazine compounds” (Sphaera Pharma Pte. Ltd., priority 2012, dated 2017):
# pIC50: −log10 of the molar value.
# Tests used:
# [1] = target: T1, PI3 Kinase alpha (p110 alpha/p85 alpha) (Homo sapiens, UniProt P42336); assay: PI3K TR-FRET assay (Transcreener ADP2); format: biochemical; conditions: for pIC50: PI3K alpha, 1 μM ATP, 50 μM PIP2; for inhibition at 1 µM: 1 uM compound, read-out: PI3K % Inhib@1 uM
# T1 construct: purchased Invitrogen
# Procedure, shortened: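 p110α/p85α with diC8 PIP2 (50 μM) and 1 μM ATP in 50 mM HEPES pH 7.4, MgCl2, CHAPS, DTT, EGTA; 1 h at room temperature. ADP detected by Transcreener ADP2 TR-FRET (665/615 nm ratio), converted to product via ADP-ATP standard curve; IC50 from four-parameter fit of % inhibition.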
# Recombinant mTOR (FRAP1) = target: T2, Recombinant mTOR (FRAP1) (Homo sapiens, UniProt P42345); assay: mTOR in vitro kinase assay (TR-FRET, phosphorylation of GFP-4E-BP1); format: biochemical; conditions: for inhibition at 1 µM: 1 uM compound, read-out: mTOR % Inhib@1 uM; for pIC50: 8 μM ATP, 400 nM GFP-4E-BP1
# T2 construct: purchased Invitrogen
# Procedure, shortened: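 Recombinant human mTOR with GFP-4E-BP1 substrate at 400 nM and 8 μM ATP, 1 h at room temperature, then quenched with 10 mM EDTA plus 2 nM Tb-anti-p4E-BP1 (pThr46) for 1 h. TR-FRET 520/486 nm ratio fitted against inhibitor concentration by four-parameter sigmoidal regression.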
# T1 sequence (P42336 whole entry): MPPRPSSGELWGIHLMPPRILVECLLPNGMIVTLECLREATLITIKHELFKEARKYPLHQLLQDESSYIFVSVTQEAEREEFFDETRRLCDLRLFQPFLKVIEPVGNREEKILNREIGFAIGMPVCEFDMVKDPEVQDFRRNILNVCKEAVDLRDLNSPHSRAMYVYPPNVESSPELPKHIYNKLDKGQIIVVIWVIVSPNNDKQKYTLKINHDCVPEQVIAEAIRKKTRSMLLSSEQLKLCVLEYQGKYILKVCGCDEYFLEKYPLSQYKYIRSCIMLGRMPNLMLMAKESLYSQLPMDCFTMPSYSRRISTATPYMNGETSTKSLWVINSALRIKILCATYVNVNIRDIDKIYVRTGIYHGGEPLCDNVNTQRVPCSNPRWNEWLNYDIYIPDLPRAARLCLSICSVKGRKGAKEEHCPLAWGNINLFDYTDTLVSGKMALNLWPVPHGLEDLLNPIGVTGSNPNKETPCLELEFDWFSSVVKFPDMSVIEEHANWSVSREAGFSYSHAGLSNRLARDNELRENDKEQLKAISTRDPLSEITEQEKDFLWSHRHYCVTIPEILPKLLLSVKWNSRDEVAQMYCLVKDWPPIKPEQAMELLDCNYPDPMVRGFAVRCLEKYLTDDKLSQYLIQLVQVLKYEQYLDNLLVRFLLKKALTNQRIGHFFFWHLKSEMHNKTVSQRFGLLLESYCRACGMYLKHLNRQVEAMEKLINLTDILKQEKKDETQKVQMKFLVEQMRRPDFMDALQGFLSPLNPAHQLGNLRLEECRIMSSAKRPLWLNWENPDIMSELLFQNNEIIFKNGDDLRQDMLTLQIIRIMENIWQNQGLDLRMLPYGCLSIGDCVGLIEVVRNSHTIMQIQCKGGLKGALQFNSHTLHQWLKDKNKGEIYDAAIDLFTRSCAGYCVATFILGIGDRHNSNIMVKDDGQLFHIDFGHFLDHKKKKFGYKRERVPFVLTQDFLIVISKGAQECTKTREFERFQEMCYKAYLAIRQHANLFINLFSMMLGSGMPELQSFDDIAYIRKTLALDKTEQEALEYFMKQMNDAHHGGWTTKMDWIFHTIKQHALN
# T1 sequence (P27986 whole entry partner): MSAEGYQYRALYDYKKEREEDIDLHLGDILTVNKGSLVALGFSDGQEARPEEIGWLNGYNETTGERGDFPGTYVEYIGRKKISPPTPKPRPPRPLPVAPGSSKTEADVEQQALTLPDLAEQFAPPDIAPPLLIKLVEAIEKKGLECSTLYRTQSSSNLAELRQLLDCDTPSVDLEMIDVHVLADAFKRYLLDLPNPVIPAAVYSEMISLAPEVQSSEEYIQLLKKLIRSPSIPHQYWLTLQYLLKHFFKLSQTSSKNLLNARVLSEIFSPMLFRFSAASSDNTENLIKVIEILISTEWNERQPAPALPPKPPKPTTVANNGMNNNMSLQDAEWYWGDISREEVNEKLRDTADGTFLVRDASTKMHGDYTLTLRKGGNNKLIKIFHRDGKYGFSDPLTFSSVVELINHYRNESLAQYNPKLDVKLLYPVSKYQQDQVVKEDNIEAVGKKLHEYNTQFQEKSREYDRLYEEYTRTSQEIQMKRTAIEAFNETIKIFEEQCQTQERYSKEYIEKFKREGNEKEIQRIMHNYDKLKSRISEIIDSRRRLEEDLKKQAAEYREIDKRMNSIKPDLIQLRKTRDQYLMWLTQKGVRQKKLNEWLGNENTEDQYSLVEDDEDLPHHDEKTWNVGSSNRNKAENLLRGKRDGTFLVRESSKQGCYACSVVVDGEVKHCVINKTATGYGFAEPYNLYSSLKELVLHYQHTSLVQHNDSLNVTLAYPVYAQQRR
# T2 sequence (P42345 1360-2549 limits assumed): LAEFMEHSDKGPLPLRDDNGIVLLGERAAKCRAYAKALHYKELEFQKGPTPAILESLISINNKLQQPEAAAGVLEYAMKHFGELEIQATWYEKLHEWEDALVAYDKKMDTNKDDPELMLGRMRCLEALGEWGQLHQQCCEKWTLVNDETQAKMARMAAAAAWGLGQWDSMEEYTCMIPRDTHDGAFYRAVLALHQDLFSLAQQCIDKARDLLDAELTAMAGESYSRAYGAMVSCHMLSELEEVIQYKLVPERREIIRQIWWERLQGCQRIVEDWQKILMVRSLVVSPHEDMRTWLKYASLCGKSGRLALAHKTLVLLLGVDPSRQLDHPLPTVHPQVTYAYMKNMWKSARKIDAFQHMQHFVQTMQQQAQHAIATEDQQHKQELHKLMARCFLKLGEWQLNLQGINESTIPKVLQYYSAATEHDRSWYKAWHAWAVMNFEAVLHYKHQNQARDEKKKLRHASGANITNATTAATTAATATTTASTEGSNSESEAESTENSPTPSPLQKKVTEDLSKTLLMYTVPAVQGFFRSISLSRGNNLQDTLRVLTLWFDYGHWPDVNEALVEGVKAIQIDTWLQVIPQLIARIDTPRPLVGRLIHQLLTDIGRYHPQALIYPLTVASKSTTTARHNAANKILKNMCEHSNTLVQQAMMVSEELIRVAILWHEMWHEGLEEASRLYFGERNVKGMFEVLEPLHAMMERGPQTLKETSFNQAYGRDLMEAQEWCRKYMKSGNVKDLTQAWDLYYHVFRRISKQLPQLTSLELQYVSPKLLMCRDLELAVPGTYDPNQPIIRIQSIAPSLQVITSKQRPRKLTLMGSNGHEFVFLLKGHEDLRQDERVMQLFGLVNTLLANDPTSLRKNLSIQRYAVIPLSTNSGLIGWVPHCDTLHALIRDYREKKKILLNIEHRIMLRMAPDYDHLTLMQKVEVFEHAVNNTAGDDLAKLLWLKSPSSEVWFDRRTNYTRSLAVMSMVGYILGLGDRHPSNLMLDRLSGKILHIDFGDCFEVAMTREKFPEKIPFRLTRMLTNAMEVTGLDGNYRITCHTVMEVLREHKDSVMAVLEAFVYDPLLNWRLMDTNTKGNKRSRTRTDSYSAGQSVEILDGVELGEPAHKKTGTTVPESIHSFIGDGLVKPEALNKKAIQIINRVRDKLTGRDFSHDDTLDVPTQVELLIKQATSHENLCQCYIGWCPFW
Structure (SMILES),pIC50 [1],inhibition at 1 µM (Recombinant mTOR (FRAP1)) [%],pIC50 (Recombinant mTOR (FRAP1)),inhibition at 1 µM [1] [%]
"Nc1ccc(-c2nc(Oc3ccc4c(c3)CCC(=O)N4)nc(N3CCOCC3)n2)cn1 [Compound 10182, 6-((4-(6-aminopyridin-3-yl)-6-morpholino-1,3,5-triazin-2-yl)oxy)-3,4-dihydroquinolin-2(1H)-one]",> 6.00,> 50,< 6.00,
"CN(C)C(=O)c1ccc(Oc2nc(-c3cnc(N)s3)nc(N3CCCCC3)n2)cc1 [Compound 10119, 4-(4-(2-aminothiazol-5-yl)-6-(piperidin-1-yl)-1,3,5-triazin-2-yloxy)-N,N-dimethylbenzamide]",< 5.00,< 50,,
"CN(C)C(=O)c1ccc(Oc2nc(-c3cnc(N)cc3C(F)(F)F)nc(N3CCOCC3)n2)c(F)c1 [Compound 10065, 4-((4-(6-Amino-4-(trifluoromethyl)pyridine-3-yl)-6-morpholino-1,3,5-triazin-2-yl)oxy)-3-fluoro-N,N-dimethylbenzamide]",> 6.00,,> 6.00,
"CN(C)C(=O)Cc1ccc(Oc2nc(-c3cnc(N)nc3)nc(N3CCOCC3)n2)cc1 [Compound 10189, 2-(4-((4-(2-aminopyrimidin-5-yl)-6-morpholino-1,3,5-triazin-2-yl)oxy)phenyl)-N,N-dimethylacetamide]",> 6.00,< 50,,
"C[C@H]1COCCN1c1nc(OC2CCC(C(=O)N(C)C)CC2)nc(-c2cccc(CO)c2)n1 (stereo partly drawn) [Compound 10147, (1R,4s)-4-(4-(3-(hydroxymethyl)phenyl)-6-((S)-3-methylmorpholino)-1,3,5-triazin-2-yloxy)-N,N-dimethylcyclohexanecarboxamide]",,,< 6.00,> 50
"C[C@H]1COCCN1c1nc(Oc2ccc(C(=O)N(C)C)cc2)nc(-c2cnc(N)s2)n1 [Compound 10005, (S)-4-(4-(2-aminothiazol-5-yl)-6-(3-methylmorpholino)-1,3,5-triazin-2-yloxy)-N,N-dimethylbenzamide]",> 6.00,> 50,> 6.00,
CN(C)C(=O)c1ccc(Oc2nc(-c3cnc(N)s3)nc(N3CCS(=O)(=O)CC3)n2)cc1 [Compound 10123],,< 50,,< 50
"CS(=O)(=O)N1CCC(COc2nc(-c3cnc(N)s3)nc(N3CCOCC3)n2)CC1 [Compound 10194, 5-(4-((1-(methylsulfonyl)piperidin-4-yl)methoxy)-6-morpholino-1,3,5-triazin-2-yl)thiazol-2-amine]",> 6.00,< 50,,
"CNc1ncc(-c2nc(Oc3ccc(C(=O)N(C)C)cc3)nc(N3CCOCC3)n2)s1 [Compound 10007, N,N-dimethyl-4-(4-(2-(methylamino)thiazol-5-yl)-6-morpholino-1,3,5-triazin-2-yloxy)benzamide]",< 6.00,> 50,> 6.00,
"CS(=O)(=O)N1CCC(COc2nc(-c3ccc(N)nc3)nc(N3CCOCC3)n2)CC1 [Compound 10185, 5-(4-((1-(methylsulfonyl)piperidin-4-yl)methoxy)-6-morpholino-1,3,5-triazin-2-yl)pyridin-2-amine]",> 6.00,< 50,,
"C[C@@H]1CN(c2nc(Oc3ccc(C(=O)N(C)C)cc3F)nc(-c3cnc4[nH]ccc4c3)n2)[C@@H](C)CO1 [Compound 10105, 4-((4-((2R,5S)-2,5-dimethylmorpholino)-6-(1H-pyrrolo[2,3-b]pyridine-5-yl)-1,3,5-triazin-2-yl)oxy)-3-fluoro-N,N-dimethylbenzamide]",< 6.00,,> 6.00,
"C[C@H]1COCCN1c1nc(OC2CCN(C(=O)N(C)C)C2)nc(-c2cnc(N)s2)n1 (stereo partly drawn) [Compound 10138, 3-(4-(2-aminothiazol-5-yl)-6-((S)-3-methylmorpholino)-1,3,5-triazin-2-yloxy)-N,N-dimethylpyrrolidine-1-carboxamide]",> 6.00,< 50,< 6.00,> 50
"C[C@H]1CN(c2nc(Oc3ccc(C(=O)N(C)C)cc3)nc(-c3cnc(N)s3)n2)[C@@H](C)CO1 [Compound 10077, 4-((4-(2-Aminothiazol-5-yl)-6-((2S,5S)-2,5-dimethylmorpholino)-1,3,5-triazin-2-yl)oxy)-N,N-dimethylbenzamide]",> 6.00,,> 6.00,> 50
"CN(C)C(=O)c1ccc(Oc2nc(-c3cnc(N)s3)nc(N3CCNC(=O)C3)n2)cc1 [Compound 10072, 4-((4-(2-Aminothiazol-5-yl)-6-(3-oxopiperazin-1-yl)-1,3,5-triazin-2-yl)oxy)-N,N-dimethylbenzamide]",,< 50,,< 50
"CN(C)C(=O)N1CCC(Oc2nc(-c3ccc(N)nc3)nc(N3CCOCC3)n2)CC1 [Compound 10021, 4-(4-(6-aminopyridin-3-yl)-6-morpholino-1,3,5-triazin-2-yloxy)-N,N-dimethylpiperidine-1-carboxamide]",> 6.00,> 50,> 6.00,
"C[C@H]1CN(c2nc(Oc3ccc(C(=O)N(C)C)cc3F)nc(-c3ccc4[nH]ncc4c3)n2)[C@@H](C)CO1 [Compound 10063, 4-((4-((25,3S)-2,5-dimethylmorpholino)-6-(1H-indazol-5-yl)-1,3,5-triazin-2-yl)oxy)-3-fluoro-N,N-dimethylbenzamide]",,,> 6.00,< 50
"C[C@H]1COCCN1c1nc(O[C@H]2CC[C@H](C(=O)N(C)C)CC2)nc(-c2ccc3[nH]ncc3c2)n1 [Compound 10202, (1S,4r)-4-((4-(1H-indazol-5-yl)-6-((S)-3-methylmorpholino)-1,3,5-triazin-2-yl)oxy)-N,N-dimethylcyclohexane-1-carboxamide]",< 5.00,,< 6.00,
"C[C@H]1COCCN1c1nc(Oc2ccc(C(=O)N(C)C)cc2F)nc(-c2ccc(N)nc2)n1 [Compound 10058, (S)-4-((4-(6-Aminopyridin-3-yl)-6-(3-methylmorpholino)-1,3,5-triazin-2-yl)oxy)-3-fluoro-N,N-dimethylbenzamide]",> 6.00,,> 6.00,
"CN(C)C(=O)NC1CCN(c2nc(-c3ccc(N)nc3)nc(N3CCOCC3)n2)CC1 [Compound 10188, 3-(1-(4-(6-aminopyridin-3-yl)-6-morpholino-1,3,5-triazin-2-yl)piperidin-4-yl)-1,1-dimethylurea]",< 6.00,< 50,,
"CC1OCCN(c2nc(Oc3ccc(C(=O)N(C)C)cc3F)nc(-c3cnc(N)s3)n2)C1C (centres unmarked) [Compound 10159, 4-(4-(2-aminothiazol-5-yl)-6-(2,3-dimethylmorpholino)-1,3,5-triazin-2-yloxy)-3-fluoro-N,N-dimethylbenzamide]",> 6.00,,> 6.00,
"Cc1cc(Oc2nc(-c3ccc(N)nc3)nc(N3CCOCC3)n2)ccc1C(=O)N(C)C [Compound 10181, 4-((4-(6-aminopyridin-3-yl)-6-morpholino-1,3,5-triazin-2-yl)oxy)-N,N,2-trimethylbenzamide]",> 6.00,> 50,> 6.00,
"C[C@H]1COCCN1c1nc(OC2CCC(C(=O)N(C)C)CC2)nc(-c2ccc3[nH]ccc3c2)n1 (stereo partly drawn) [Compound 10141, (1R,4s)-4-(4-(1H-indol-5-yl)-6-((S)-3-methylmorpholino)-1,3,5-triazin-2-yloxy)-N,N-dimethylcyclohexanecarboxamide]",< 5.00,,> 6.00,< 50
